Reference: patent US20150296790A1, “SILICON-CONTAINING COMPOUND AQUEOUS SOLUTION AND ANTIBACTERIAL/ANTIVIRAL AGENT INCLUDING SAID SOLUTION” (JEX CO., LTD., priority 2012, published 2015)

Test: Solubility of CD (clarity and stability, visual)
Type: physicochemical
Design: key to Solubility of CD: Stability: OK: When the aqueous CD solution did not exhibit the conditions such as presence of precipitates and deposits, the solution was considered as stable; NG: When the aqueous CD solution exhibited the conditions such as presence of precipitates and deposits, the solution was not considered as stable; key to Solubility of CD: Clarity: When the CD aqueous solution was clear, the solution was rated as “OK”; When the solution was not clear, the solution was rated as “NG”
Method: “Clarity” in “Solubility of CD” in the tables was determined by sequentially adding the CD and purified water at the respective ratio to a predetermined screw-cap bottle and stirring the mixture in the sealed bottle on a shaker to prepare the respective aqueous CD solution, which was then visually evaluated for clarity immediately after the preparation. When the CD aqueous solution was clear, the solution was rated as “OK”. When the solution was not clear, the solution was rated as “NG”. “Stability” in “Solubility of CD” in the tables was determined by allowing the respective aqueous CD solution after preparation to stand at ambient temperature for a predetermined period and then visually evaluating the conditions (such as presence of precipitates and deposits) of the solution.

[1] = Ratio of CD Alone 1 w/w % in purified water
[2] = Ratio of CD Alone 2-6 w/w % in purified water
[3] = Ratio of CD Alone 7 w/w % in purified water
[4] = Ratio of CD Alone 8-10 w/w % in purified water
[5] = Ratio of CD Alone 2-10 w/w % in purified water
[6] = Ratio of CD Alone 2 w/w % in purified water
[7] = Ratio of CD Alone 3 w/w % in purified water
[8] = Ratio of CD Alone 4-5 w/w % in purified water
[9] = Ratio of CD Alone 6 w/w % in purified water
[10] = Ratio of CD Alone 7-9 w/w % in purified water
[11] = Ratio of CD Alone 10 w/w % in purified water
[12] = Ratio of CD Alone 15 w/w % in purified water
[13] = Ratio of CD Alone 20 w/w % in purified water
[14] = Ratio of CD Alone 25 w/w % in purified water

For `OC[C@H]1O[C@@H]2O[C@H]3[C@H](O)[C@@H](O)[C@@H](O[C@H]4[C@H](O)[C@@H](O)[C@@H](O[C@H]5[C@H](O)[C@@H](O)[C@@H](O[C@H]6[C@H](O)[C@@H](O)[C@@H](O[C@H]7[C@H](O)[C@@H](O)[C@@H](O[C@H]1[C@H](O)[C@H]2O)O[C@@H]7CO)O[C@@H]6CO)O[C@@H]5CO)O[C@@H]4CO)O[C@@H]3CO` [α, α-cyclodextrin], the “Solubility of CD: Clarity” value [1] was “OK”, the “Solubility of CD: Stability” value [1] was “OK” and the “Solubility of CD: Clarity” value [2] was “OK”. For the same molecule, the “Solubility of CD: Stability” value [2] was “OK”, the “Solubility of CD: Clarity” value [3] was “OK” and the “Solubility of CD: Stability” value [3] was “OK”. For the same molecule, the “Solubility of CD: Clarity” value [4] was “NG” and the “Solubility of CD: Stability” value [4] was “NG”.

In the case of `OC[C@H]1O[C@@H]2O[C@H]3[C@H](O)[C@@H](O)[C@@H](O[C@H]4[C@H](O)[C@@H](O)[C@@H](O[C@H]5[C@H](O)[C@@H](O)[C@@H](O[C@H]6[C@H](O)[C@@H](O)[C@@H](O[C@H]7[C@H](O)[C@@H](O)[C@@H](O[C@H]8[C@H](O)[C@@H](O)[C@@H](O[C@H]1[C@H](O)[C@H]2O)O[C@@H]8CO)O[C@@H]7CO)O[C@@H]6CO)O[C@@H]5CO)O[C@@H]4CO)O[C@@H]3CO` [β, β-cyclodextrin], the “Solubility of CD: Clarity” value [1] is reported as “OK”, the “Solubility of CD: Stability” value [1] is reported as “OK” and the “Solubility of CD: Clarity” value [5] is reported as “NG”. The “Solubility of CD: Stability” value [5] was “NG”.

In the case of `OC[C@H]1O[C@@H]2O[C@H]3[C@H](O)[C@@H](O)[C@@H](O[C@H]4[C@H](O)[C@@H](O)[C@@H](O[C@H]5[C@H](O)[C@@H](O)[C@@H](O[C@H]6[C@H](O)[C@@H](O)[C@@H](O[C@H]7[C@H](O)[C@@H](O)[C@@H](O[C@H]8[C@H](O)[C@@H](O)[C@@H](O[C@H]9[C@H](O)[C@@H](O)[C@@H](O[C@H]1[C@H](O)[C@H]2O)O[C@@H]9CO)O[C@@H]8CO)O[C@@H]7CO)O[C@@H]6CO)O[C@@H]5CO)O[C@@H]4CO)O[C@@H]3CO` [γ, γ-cyclodextrin], the “Solubility of CD: Clarity” value [1] is reported as “OK”, the “Solubility of CD: Stability” value [1] is reported as “OK” and the “Solubility of CD: Clarity” value [6] is reported as “OK”. For the same molecule, the “Solubility of CD: Stability” value [6] was “OK”, the “Solubility of CD: Clarity” value [7] was “OK” and the “Solubility of CD: Stability” value [7] was “OK”. For the same molecule, the “Solubility of CD: Clarity” value [8] was “OK”, the “Solubility of CD: Stability” value [8] was “OK” and the “Solubility of CD: Clarity” value [9] was “OK”. For the same molecule, the “Solubility of CD: Stability” value [9] was “OK”, the “Solubility of CD: Clarity” value [10] was “OK” and the “Solubility of CD: Stability” value [10] was “OK”. The “Solubility of CD: Clarity” value [11] was “OK”, the “Solubility of CD: Stability” value [11] was “OK” and the “Solubility of CD: Clarity” value [12] was “NG”. For the same molecule, the “Solubility of CD: Stability” value [12] was “OK”, the “Solubility of CD: Clarity” value [13] was “NG” and the “Solubility of CD: Stability” value [13] was “OK”. For the same molecule, the “Solubility of CD: Clarity” value [14] was “NG” and the “Solubility of CD: Stability” value [14] was “NG”.
